Data reported in PubChem BioAssay (NCI).
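Results reflect a 48-hour exposure of cells in 96-well plates to compound at five concentrations. TGI is the concentration that stops growth completely.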

Assays:
Test in all cases: growth of human tumour cells (NCI), 48 h
[1] = system: COLO 205 colon
[2] = system: EKVX NSCLC
[3] = system: HCC-2998 colon
[4] = system: HT29 colon
[5] = system: K-562 leukemia
[6] = system: MDA-MB-435
[7] = system: SNB-19 CNS
[8] = system: SW-620 colon
[9] = system: T-47D breast
[10] = system: UACC-62 melanoma

SMILES: Cc1cccc(NC(=S)Nc2cccc(Cl)c2)n1
- TGI [1]: > 100 µM
- TGI [2]: > 100 µM
- TGI [3]: > 100 µM
- TGI [4]: > 100 µM
- TGI [5]: > 100 µM
- TGI [6]: > 100 µM
- TGI [7]: > 100 µM
- TGI [8]: > 100 µM
- TGI [9]: > 100 µM
- TGI [10]: > 100 µM

SMILES: Cc1noc(-c2ccc(C(=O)O)[nH]2)c1Br
- TGI [1]: > 100 µM
- TGI [2]: > 100 µM
- TGI [3]: > 100 µM
- TGI [4]: > 100 µM
- TGI [5]: > 100 µM
- TGI [6]: > 100 µM
- TGI [7]: > 100 µM
- TGI [8]: > 100 µM
- TGI [9]: 71.4 µM
- TGI [10]: > 100 µM

SMILES: C[C@]12CC[C@H]3[C@@H](CC=C4C[C@@H](O)CC[C@@]43C)[C@@H]1C/C(=C\c1ccc([N+](=O)[O-])cc1)[C@@H]2O
- TGI [1]: > 100 µM
- TGI [2]: 26.5 µM
- TGI [3]: 30.4 µM
- TGI [4]: 20.6 µM
- TGI [5]: > 100 µM
- TGI [6]: > 100 µM
- TGI [7]: 38.7 µM
- TGI [8]: > 100 µM
- TGI [9]: 29.5 µM
- TGI [10]: 34.1 µM
